This passage reports mutagenic call results from PubChem BioAssay AID1259407 (Chemical Carcinogenesis Research Information System (CCRIS), 2018).

Calls of active or inactive are those of the source. No rule for the calls is given here.

The test system of the data set is CCRIS mutagenicity, Ames/micronucleus/aberration tests. Description: CCRIS mutagenicity studies.
Setting [1] is: Test System: AMES SALMONELLA TYPHIMURIUM, Strain/Indicator: TA100, Metabolic Activation: NONE, Method: PREINCUBATION

With `C[Si](C)(C)N=[N+]=[N-]`, the mutagenic call is “active; positive” under setting [1] and “active; positive” (Test System: AMES SALMONELLA TYPHIMURIUM, Strain/Indicator: TA100, Metabolic Activation: RAT, LIVER, S-9, PCB, Method: PREINCUBATION).

As to `CC1CC(=O)O1` (centres undefined), the mutagenic call runs as follows: (Test System: AMES SALMONELLA TYPHIMURIUM, Strain/Indicator: G46, Metabolic Activation: NONE, Method: STANDARD PLATE) “active; positive”; (Test System: AMES SALMONELLA TYPHIMURIUM, Strain/Indicator: TA98, Metabolic Activation: HAMSTER, LIVER, S-9, AROCLOR 1254 (30%), Method: PREINCUBATION) “active; positive”; (Test System: AMES SALMONELLA TYPHIMURIUM, Strain/Indicator: TA98, Metabolic Activation: NONE, Method: PREINCUBATION) “active; positive”; (Test System: AMES SALMONELLA TYPHIMURIUM, Strain/Indicator: TA98, Metabolic Activation: RAT, LIVER, S-9, AROCLOR 1254 (30%), Method: PREINCUBATION) “active; positive”; (Test System: AMES SALMONELLA TYPHIMURIUM, Strain/Indicator: TA100, Metabolic Activation: HAMSTER, LIVER, S-9, AROCLOR 1254 (30%), Method: PREINCUBATION) “active; positive”; under setting [1], “active; positive”. Moreover, under “Test System: AMES SALMONELLA TYPHIMURIUM, Strain/Indicator: TA100, Metabolic Activation: RAT, LIVER, S-9, AROCLOR 1254 (30%), Method: PREINCUBATION”, the mutagenic call was “active; positive”.

As to `O=C(O)CN(CC(=O)O)C1C[C@H]1N(CC(=O)O)CC(=O)O` (some centres undefined), the mutagenic call is “active; positive” (Test System: CHINESE HAMSTER V-79, Strain/Indicator: V-79/OUABAIN, Metabolic Activation: NONE, Method: STANDARD PLATE) and “active; positive” (Test System: UDS RODENT CELLS, Strain/Indicator: THY INCORP (NON-S-PHASE), Metabolic Activation: NONE, Method: AUTORADIOGRAPHY).

Turning to `NCCCCCCCCCCC(=O)O`, the mutagenic call was “inactive; negative; precipitation occurred at 1000 ug/ml” (End Point: IN VITRO CHROMOSOMAL ABERRATIONS, Test System: CHINESE HAMSTER OVARY CELLS, Metabolic Activation: NONE); “inactive; negative; precipitation occurred at 1000 ug/ml” (End Point: IN VITRO CHROMOSOMAL ABERRATIONS, Test System: CHINESE HAMSTER OVARY CELLS, Metabolic Activation: RAT, LIVER, S-9, AROCLOR 1254); “inactive; negative” (Test System: UDS RAT HEPATOCYTES, Strain/Indicator: BROMODEOXYURIDINE INCORP, Metabolic Activation: NONE, Method: FLOW CYTOMETRIC ANALYSIS).
